{
  "source": "patent US20260224588A1",
  "about": "“BENZODIAZEPINONE-DERIVED INHIBITORS OF EGFR AND HER2” (The Research Foundation for the State University of New York, priority 2023, published 2026)",
  "assay_in_all_cases": "KINOMEscan",
  "assay_type_in_all_cases": "binding",
  "conditions_in_all_cases": "1 μM of compound 4; read-out: POC",
  "key": {"[1]": {"target": "T1, AAK1 (Homo sapiens, UniProt Q2M2I8)", "T1 construct": "purchased Eurofins DiscoverX Corporation"}, "[2]": {"target": "T2, ACVR1 (Homo sapiens, UniProt Q04771)", "T2 construct": "purchased Eurofins DiscoverX Corporation"}, "[3]": {"target": "AURKA (Homo sapiens, UniProt O14965)", "sequence (O14965 whole entry)": "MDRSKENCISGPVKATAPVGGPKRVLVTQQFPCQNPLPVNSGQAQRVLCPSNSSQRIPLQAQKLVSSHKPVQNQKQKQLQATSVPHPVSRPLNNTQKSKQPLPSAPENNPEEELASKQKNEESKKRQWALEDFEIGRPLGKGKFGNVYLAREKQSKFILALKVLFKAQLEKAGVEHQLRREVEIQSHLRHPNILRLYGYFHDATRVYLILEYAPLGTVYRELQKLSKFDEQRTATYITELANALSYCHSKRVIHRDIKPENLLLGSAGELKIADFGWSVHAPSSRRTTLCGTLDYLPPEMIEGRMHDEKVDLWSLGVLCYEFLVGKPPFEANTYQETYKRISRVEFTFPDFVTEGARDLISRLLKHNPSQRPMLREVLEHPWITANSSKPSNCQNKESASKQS"}, "[4]": {"target": "CAMK2G (Homo sapiens, UniProt Q13555)"}, "[5]": {"target": "CTK (Homo sapiens, UniProt P42679)"}, "[6]": {"target": "DCAMKL1 (Homo sapiens, UniProt O15075)"}, "[7]": {"target": "DDR1 (Homo sapiens, UniProt Q08345)"}, "[8]": {"target": "DRAK2 (Homo sapiens, UniProt O94768)", "sequence (O94768 whole entry)": "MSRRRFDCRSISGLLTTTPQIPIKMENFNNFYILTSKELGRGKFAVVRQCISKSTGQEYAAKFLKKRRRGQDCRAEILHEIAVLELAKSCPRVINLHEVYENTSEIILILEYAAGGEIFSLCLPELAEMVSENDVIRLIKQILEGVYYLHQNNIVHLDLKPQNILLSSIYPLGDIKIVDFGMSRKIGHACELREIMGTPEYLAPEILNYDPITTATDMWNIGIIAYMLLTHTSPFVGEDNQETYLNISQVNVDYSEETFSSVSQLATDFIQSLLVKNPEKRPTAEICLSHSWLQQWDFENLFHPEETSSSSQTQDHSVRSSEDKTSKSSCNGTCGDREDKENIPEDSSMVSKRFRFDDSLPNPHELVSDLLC"}, "[9]": {"target": "EGFR (Homo sapiens, UniProt P00533)"}, "[10]": {"target": "T3, EPHA8 (Homo sapiens, UniProt P29322)", "T3 construct": "purchased Eurofins DiscoverX (KINOMEscan service)"}, "[11]": {"target": "T4, EPHB2 (Homo sapiens, UniProt P29323)", "T4 construct": "purchased Eurofins DiscoverX (KINOMEscan service)"}, "[12]": {"target": "T5, EPHB3 (Homo sapiens, UniProt P54753)", "T5 construct": "purchased Eurofins DiscoverX (KINOMEscan service)", "T5 sequence (P54753 34-998)": "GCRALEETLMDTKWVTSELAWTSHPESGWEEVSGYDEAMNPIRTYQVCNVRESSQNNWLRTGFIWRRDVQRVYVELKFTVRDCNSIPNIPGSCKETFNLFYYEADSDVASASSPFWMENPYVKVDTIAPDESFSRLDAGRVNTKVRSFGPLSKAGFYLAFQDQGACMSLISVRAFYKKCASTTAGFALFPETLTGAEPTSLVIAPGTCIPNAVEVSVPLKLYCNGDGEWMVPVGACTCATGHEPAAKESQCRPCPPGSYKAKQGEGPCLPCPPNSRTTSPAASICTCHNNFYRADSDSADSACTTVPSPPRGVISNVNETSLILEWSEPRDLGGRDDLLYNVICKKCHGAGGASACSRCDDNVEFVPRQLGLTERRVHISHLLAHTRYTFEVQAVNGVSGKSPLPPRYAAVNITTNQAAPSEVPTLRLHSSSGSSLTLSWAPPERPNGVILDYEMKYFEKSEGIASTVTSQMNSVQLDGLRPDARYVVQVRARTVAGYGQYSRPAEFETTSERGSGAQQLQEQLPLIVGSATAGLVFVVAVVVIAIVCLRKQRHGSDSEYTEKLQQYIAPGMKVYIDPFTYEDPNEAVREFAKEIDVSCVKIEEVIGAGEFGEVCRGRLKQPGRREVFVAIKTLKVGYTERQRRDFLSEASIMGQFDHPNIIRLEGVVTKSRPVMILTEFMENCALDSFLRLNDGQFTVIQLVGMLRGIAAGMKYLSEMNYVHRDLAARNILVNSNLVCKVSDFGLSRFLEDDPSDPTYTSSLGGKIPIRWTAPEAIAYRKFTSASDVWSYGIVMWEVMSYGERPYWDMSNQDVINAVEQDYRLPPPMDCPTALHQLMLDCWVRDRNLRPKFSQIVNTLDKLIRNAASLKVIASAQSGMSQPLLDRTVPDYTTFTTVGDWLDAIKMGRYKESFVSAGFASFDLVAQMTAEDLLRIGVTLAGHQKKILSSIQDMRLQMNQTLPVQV"}, "[13]": {"target": "JAK1(JH2domain-pseudokinase) (Homo sapiens, UniProt P23458)", "sequence (P23458 583-855 limits assumed)": "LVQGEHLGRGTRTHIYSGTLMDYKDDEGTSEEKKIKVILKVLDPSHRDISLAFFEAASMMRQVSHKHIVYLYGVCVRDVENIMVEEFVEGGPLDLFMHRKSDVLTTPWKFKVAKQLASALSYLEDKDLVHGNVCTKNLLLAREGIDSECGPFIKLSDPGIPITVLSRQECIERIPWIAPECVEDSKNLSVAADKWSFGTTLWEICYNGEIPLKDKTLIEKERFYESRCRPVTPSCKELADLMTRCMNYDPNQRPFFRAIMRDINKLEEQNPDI"}, "[14]": {"target": "KIT(V559D + T670I) (Homo sapiens, UniProt P10721, T670I/V559D)"}, "[15]": {"target": "KIT(V559D + V654A) (Homo sapiens, UniProt P10721, V559D/V654A)"}, "[16]": {"target": "LRRK2(G2019S) (Homo sapiens, UniProt Q5S007, G2019S)"}, "[17]": {"target": "LTK (Homo sapiens, UniProt P29376)"}, "[18]": {"target": "LYN (Homo sapiens, UniProt P07948)"}, "[19]": {"target": "MAP3K1 (Homo sapiens, UniProt Q13233)"}, "[20]": {"target": "MAP3K2 (Homo sapiens, UniProt Q9Y2U5)"}, "[21]": {"target": "MAP4K5 (Homo sapiens, UniProt Q9Y4K4)"}, "[22]": {"target": "MKNK1 (Homo sapiens, UniProt Q9BUB5)", "sequence (Q9BUB5 whole entry)": "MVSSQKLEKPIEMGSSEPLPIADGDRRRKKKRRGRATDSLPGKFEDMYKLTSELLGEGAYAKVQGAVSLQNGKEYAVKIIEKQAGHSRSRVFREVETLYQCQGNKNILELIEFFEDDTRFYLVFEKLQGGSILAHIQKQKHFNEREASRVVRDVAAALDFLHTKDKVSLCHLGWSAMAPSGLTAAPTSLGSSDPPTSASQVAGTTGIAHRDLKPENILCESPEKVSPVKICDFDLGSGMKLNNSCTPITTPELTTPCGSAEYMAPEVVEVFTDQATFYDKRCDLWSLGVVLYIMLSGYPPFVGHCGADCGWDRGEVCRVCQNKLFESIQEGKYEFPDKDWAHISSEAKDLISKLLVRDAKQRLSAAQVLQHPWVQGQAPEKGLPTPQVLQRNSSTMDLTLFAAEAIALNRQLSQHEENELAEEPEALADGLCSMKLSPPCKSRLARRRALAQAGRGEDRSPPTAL"}, "[23]": {"target": "MLK2 (Homo sapiens, UniProt Q02779)", "sequence (Q02779 whole entry)": "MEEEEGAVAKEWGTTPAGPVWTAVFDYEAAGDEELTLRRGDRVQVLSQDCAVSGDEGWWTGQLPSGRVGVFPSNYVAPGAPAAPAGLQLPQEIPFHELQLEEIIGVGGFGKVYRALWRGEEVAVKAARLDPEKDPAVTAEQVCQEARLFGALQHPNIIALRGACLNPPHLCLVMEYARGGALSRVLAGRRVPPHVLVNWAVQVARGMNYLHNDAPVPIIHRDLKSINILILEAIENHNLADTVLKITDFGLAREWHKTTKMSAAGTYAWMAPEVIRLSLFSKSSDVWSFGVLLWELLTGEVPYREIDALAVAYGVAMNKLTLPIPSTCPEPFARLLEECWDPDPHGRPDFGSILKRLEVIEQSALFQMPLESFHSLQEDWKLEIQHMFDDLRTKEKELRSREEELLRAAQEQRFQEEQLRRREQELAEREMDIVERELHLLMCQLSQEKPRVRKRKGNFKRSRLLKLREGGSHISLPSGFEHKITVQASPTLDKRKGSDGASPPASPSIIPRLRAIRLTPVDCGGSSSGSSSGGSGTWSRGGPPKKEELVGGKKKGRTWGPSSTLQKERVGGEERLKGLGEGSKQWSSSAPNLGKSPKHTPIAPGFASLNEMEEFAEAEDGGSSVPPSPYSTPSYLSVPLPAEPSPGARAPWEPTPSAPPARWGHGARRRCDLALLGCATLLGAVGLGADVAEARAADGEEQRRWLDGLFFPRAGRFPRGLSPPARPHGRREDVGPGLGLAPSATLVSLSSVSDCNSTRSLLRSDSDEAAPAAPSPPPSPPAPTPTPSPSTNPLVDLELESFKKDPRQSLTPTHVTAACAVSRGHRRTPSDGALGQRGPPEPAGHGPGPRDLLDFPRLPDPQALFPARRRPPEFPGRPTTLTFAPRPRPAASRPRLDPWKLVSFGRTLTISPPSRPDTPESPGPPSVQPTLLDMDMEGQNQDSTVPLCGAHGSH"}, "[24]": {"target": "MRCKB (Homo sapiens, UniProt Q9Y5S2)"}, "[25]": {"target": "T6, PAK4 (Homo sapiens, UniProt O96013)", "T6 construct": "purchased Eurofins DiscoverX Corporation (KINOMEscan)"}, "[26]": {"target": "T7, PFTAIRE2 (Homo sapiens, UniProt Q96Q40)", "T7 construct": "purchased Eurofins DiscoverX Corporation (KINOMEscan)"}, "[27]": {"target": "PHKG2 (Homo sapiens, UniProt P15735)"}, "[28]": {"target": "PIK3CA(H1047Y) (Homo sapiens, UniProt P42336, H1047Y)"}, "[29]": {"target": "PLK1 (Homo sapiens, UniProt P53350)"}, "[30]": {"target": "T8, RET(M918T) (Homo sapiens, UniProt P07949, M918T)", "T8 construct": "purchased Eurofins DiscoverX Corporation (KINOMEscan screening service)"}, "[31]": {"target": "T9, RPS6KA4(Kin.Dom.1-N-terminal) (Homo sapiens, UniProt O75676)", "T9 construct": "RPS6KA4(Kin.Dom.1-N-terminal); purchased Eurofins DiscoverX Corporation (KINOMEscan screening service)", "T9 sequence (O75676 33-301 limits assumed)": "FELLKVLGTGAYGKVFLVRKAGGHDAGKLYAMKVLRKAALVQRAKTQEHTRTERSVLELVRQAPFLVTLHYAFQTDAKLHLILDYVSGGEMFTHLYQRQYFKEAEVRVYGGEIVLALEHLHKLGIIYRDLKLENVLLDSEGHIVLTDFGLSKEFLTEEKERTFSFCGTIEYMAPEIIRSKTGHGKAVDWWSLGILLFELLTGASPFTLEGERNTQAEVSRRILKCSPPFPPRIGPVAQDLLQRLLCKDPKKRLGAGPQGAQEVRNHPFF"}, "[32]": {"target": "T10, RSK3(Kin.Dom.2-C-terminal) (Homo sapiens, UniProt Q15349)", "T10 construct": "RSK3(Kin.Dom.2-C-terminal); purchased Eurofins DiscoverX (KINOMEscan service)"}, "[33]": {"target": "T11, SIK2 (Homo sapiens, UniProt Q9H0K1)", "T11 construct": "purchased Eurofins DiscoverX (KINOMEscan service)"}, "[34]": {"target": "T12, TAOK2 (Homo sapiens, UniProt Q9UL54)", "T12 construct": "purchased Eurofins DiscoverX Corporation"}, "[35]": {"target": "T13, TNIK (Homo sapiens, UniProt Q9UKE5)", "T13 construct": "purchased Eurofins DiscoverX Corporation"}, "[36]": {"target": "T14, TRKA (Homo sapiens, UniProt P04629)", "T14 construct": "purchased Eurofins DiscoverX Corporation", "T14 sequence (P04629 33-796)": "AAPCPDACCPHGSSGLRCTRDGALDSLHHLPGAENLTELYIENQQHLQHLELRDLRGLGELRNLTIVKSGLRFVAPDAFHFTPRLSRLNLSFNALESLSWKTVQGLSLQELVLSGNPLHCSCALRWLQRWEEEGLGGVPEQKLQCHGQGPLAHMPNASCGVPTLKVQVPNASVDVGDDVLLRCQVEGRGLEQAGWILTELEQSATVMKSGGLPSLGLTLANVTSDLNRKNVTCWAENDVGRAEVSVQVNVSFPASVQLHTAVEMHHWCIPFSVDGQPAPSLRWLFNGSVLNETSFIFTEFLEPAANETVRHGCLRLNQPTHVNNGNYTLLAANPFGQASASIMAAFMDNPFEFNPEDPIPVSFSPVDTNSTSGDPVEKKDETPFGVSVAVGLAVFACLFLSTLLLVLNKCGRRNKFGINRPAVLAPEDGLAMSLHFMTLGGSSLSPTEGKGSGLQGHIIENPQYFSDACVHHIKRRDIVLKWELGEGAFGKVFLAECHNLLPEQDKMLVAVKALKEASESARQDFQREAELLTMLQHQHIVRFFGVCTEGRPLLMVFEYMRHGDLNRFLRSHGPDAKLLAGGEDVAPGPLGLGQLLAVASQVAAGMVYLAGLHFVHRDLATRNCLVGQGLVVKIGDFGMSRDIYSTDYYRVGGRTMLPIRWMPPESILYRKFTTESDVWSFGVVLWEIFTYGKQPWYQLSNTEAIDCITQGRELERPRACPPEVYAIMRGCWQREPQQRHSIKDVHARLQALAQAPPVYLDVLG"}, "[37]": {"target": "T15, YANK1 (Homo sapiens, UniProt Q8WU08)", "T15 construct": "purchased Eurofins DiscoverX", "T15 sequence (Q8WU08 whole entry)": "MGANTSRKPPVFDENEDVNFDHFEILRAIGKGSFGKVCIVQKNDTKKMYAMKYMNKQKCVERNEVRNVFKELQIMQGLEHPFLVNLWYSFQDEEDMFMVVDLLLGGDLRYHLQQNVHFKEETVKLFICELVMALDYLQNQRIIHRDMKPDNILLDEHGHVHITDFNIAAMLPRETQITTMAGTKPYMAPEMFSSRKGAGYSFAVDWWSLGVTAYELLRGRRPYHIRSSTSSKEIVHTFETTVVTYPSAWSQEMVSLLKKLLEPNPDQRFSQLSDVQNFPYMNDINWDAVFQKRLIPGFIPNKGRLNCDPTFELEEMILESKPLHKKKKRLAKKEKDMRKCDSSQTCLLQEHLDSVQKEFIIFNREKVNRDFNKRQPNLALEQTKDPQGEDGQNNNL"}},
  "data": [
    {"smiles": "C=CC(=O)Nc1ccc(OC)c(Nc2cc(-c3[nH]c(CC)nc3-c3cccc(NC(=O)c4cccc5c4NC(=O)c4ccccc4N5)c3)ccn2)c1", "note": "[Compound 4, N-(3-(5-(2-((5-Acrylamido-2-methoxyphenyl)amino)pyridin-4-yl)-2-ethyl-1H-imidazol-4-yl)phenyl)-11-oxo-10,11-dihydro-5H-dibenzo[b,e][1,4]diazepine-9-carboxamide]", "values": [
      {"measurement": "remaining binding at 1 µM", "setting": "[1]", "value": 100, "unit": "%"},
      {"measurement": "remaining binding at 1 µM", "setting": "[2]", "value": 96, "unit": "%"},
      {"measurement": "remaining binding at 1 µM", "setting": "[3]", "value": 90, "unit": "%"},
      {"measurement": "remaining binding at 1 µM", "setting": "[4]", "value": 100, "unit": "%"},
      {"measurement": "remaining binding at 1 µM", "setting": "[5]", "value": 54, "unit": "%"},
      {"measurement": "remaining binding at 1 µM", "setting": "[6]", "value": 100, "unit": "%"},
      {"measurement": "remaining binding at 1 µM", "setting": "[7]", "value": 90, "unit": "%"},
      {"measurement": "remaining binding at 1 µM", "setting": "[8]", "value": 94, "unit": "%"},
      {"measurement": "remaining binding at 1 µM", "setting": "[9]", "value": 17, "unit": "%"},
      {"measurement": "remaining binding at 1 µM", "setting": "[10]", "value": 98, "unit": "%"},
      {"measurement": "remaining binding at 1 µM", "setting": "[11]", "value": 100, "unit": "%"},
      {"measurement": "remaining binding at 1 µM", "setting": "[12]", "value": 100, "unit": "%"},
      {"measurement": "remaining binding at 1 µM", "setting": "[13]", "value": 83, "unit": "%"},
      {"measurement": "remaining binding at 1 µM", "setting": "[14]", "value": 95, "unit": "%"},
      {"measurement": "remaining binding at 1 µM", "setting": "[15]", "value": 93, "unit": "%"},
      {"measurement": "remaining binding at 1 µM", "setting": "[16]", "value": 100, "unit": "%"},
      {"measurement": "remaining binding at 1 µM", "setting": "[17]", "value": 48, "unit": "%"},
      {"measurement": "remaining binding at 1 µM", "setting": "[18]", "value": 22, "unit": "%"},
      {"measurement": "remaining binding at 1 µM", "setting": "[19]", "value": 100, "unit": "%"},
      {"measurement": "remaining binding at 1 µM", "setting": "[20]", "value": 100, "unit": "%"},
      {"measurement": "remaining binding at 1 µM", "setting": "[21]", "value": 2.5, "unit": "%"},
      {"measurement": "remaining binding at 1 µM", "setting": "[22]", "value": 100, "unit": "%"},
      {"measurement": "remaining binding at 1 µM", "setting": "[23]", "value": 97, "unit": "%"},
      {"measurement": "remaining binding at 1 µM", "setting": "[24]", "value": 1.7, "unit": "%"},
      {"measurement": "remaining binding at 1 µM", "setting": "[25]", "value": 89, "unit": "%"},
      {"measurement": "remaining binding at 1 µM", "setting": "[26]", "value": 84, "unit": "%"},
      {"measurement": "remaining binding at 1 µM", "setting": "[27]", "value": 73, "unit": "%"},
      {"measurement": "remaining binding at 1 µM", "setting": "[28]", "value": 66, "unit": "%"},
      {"measurement": "remaining binding at 1 µM", "setting": "[29]", "value": 50, "unit": "%"},
      {"measurement": "remaining binding at 1 µM", "setting": "[30]", "value": 99, "unit": "%"},
      {"measurement": "remaining binding at 1 µM", "setting": "[31]", "value": 96, "unit": "%"},
      {"measurement": "remaining binding at 1 µM", "setting": "[32]", "value": 80, "unit": "%"},
      {"measurement": "remaining binding at 1 µM", "setting": "[33]", "value": 100, "unit": "%"},
      {"measurement": "remaining binding at 1 µM", "setting": "[34]", "value": 100, "unit": "%"},
      {"measurement": "remaining binding at 1 µM", "setting": "[35]", "value": 33, "unit": "%"},
      {"measurement": "remaining binding at 1 µM", "setting": "[36]", "value": 77, "unit": "%"},
      {"measurement": "remaining binding at 1 µM", "setting": "[37]", "value": 84, "unit": "%"}
    ]}
  ]
}
